Assay results as given in PMC7158045 (BMC Plant Biology, 2020).

How the values were obtained:
Assay in all cases: biochemical
ZmDRIK1-R187-P492 = molecular target: T1, ZmDRIK1-R187-P492 (Zea mays, UniProt C0P4K9); settings: read-out: dTm B, DSF, Boltzmann fit, 0.1% DMSO
T1 construct: kinase domain, R187-P492
T1 sequence (C0P4K9 1-514): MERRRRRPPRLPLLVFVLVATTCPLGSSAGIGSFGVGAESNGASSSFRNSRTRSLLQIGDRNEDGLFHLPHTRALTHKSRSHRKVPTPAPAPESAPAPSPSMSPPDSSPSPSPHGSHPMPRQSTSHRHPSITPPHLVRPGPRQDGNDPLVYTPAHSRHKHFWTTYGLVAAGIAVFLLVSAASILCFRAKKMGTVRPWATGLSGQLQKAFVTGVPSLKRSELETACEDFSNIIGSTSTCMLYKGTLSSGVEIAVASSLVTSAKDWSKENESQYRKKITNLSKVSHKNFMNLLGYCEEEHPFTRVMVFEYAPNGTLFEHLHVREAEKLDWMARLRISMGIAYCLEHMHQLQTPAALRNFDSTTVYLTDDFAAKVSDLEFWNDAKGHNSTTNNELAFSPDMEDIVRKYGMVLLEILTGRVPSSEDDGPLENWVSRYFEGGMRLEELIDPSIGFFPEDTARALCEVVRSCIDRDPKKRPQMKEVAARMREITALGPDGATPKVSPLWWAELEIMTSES

ZmDRIK1-K217-S514 = molecular target: T2, ZmDRIK1-K217-S514 (Zea mays, UniProt C0P4K9); settings: read-out: dTm B, sheet ZmDRIK1-K217-S514;; DSF, Boltzmann fit, 0.1% DMSO
T2 construct: kinase domain, K217-S514
T2 sequence (C0P4K9 1-514): T1 sequence (C0P4K9 1-514)

[1] = molecular target: T3, ZmDRIK1 (DROUGHT RESPONSIVE INACTIVE KINASE 1), kinase domain (Zea mays, UniProt C0P4K9); settings: read-out: dTm B, sheet ZmDRIK1-R187-S514;; DSF, Boltzmann fit, 0.1% DMSO
T3 construct: gene ZEAMMB73_Zm00001d028770; ZmDRIK1-KD R187-S514 (kinase domain)
T3 sequence (C0P4K9 187-514): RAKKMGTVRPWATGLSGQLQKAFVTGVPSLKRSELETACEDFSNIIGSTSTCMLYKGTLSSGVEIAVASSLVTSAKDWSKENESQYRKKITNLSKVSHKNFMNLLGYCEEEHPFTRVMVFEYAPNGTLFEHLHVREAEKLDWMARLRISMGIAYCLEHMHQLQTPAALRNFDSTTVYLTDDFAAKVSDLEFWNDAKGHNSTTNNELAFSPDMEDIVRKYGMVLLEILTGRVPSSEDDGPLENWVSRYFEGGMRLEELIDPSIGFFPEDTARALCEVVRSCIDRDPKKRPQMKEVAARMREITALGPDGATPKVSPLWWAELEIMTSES

ZmDRIK1-K217-P492 = molecular target: T4, ZmDRIK1-K217-P492 (Zea mays, UniProt C0P4K9); settings: read-out: dTm B, sheet ZmDRIK1-K217-P492;; DSF, Boltzmann fit, 0.1% DMSO
T4 construct: kinase domain, K217-P492
T4 sequence (C0P4K9 1-514): T1 sequence (C0P4K9 1-514)

| SMILES | ΔTm at 10 µM (ZmDRIK1-R187-P492) [°C] | ΔTm at 10 µM (ZmDRIK1-K217-S514) [°C] | ΔTm at 10 µM [1] [°C] | ΔTm at 10 µM (ZmDRIK1-K217-P492) [°C] |
| --- | --- | --- | --- | --- |
| O=C(NOCC(O)CO)c1cc(Br)c(F)c(F)c1Nc1ccc(I)cc1F (stereo not drawn) [PD318088] | 0.042 | -0.114 | -0.924 | -1.33 |
| COc1cc2ncnc(Nc3ccc(Cl)cc3F)c2cc1OC [ZM 306416] | -0.383 | -0.336 | -0.525 | -0.758 |
| O=C(NC[C@H](O)CO)c1ccncc1Nc1ccc(I)cc1F [Pimasertib (AS-703026)] | -0.33 | -0.594 | -0.651 | -0.841 |
| CNc1nc(Nc2cnn([C@H]3CCN(C4COC4)C[C@@H]3F)c2Cl)ncc1C(F)(F)F [GNE-9605] | -0.334 | -0.718 | -0.953 | -0.685 |
| NC(=O)Nc1cc(-c2cccc(F)c2)sc1C(=O)N[C@H]1CCCNC1 [AZD7762] | -0.167 | -0.261 | -0.804 | -0.323 |
| COc1ccc2cc(-c3nc(-c4ccc([S+](C)[O-])cc4)[nH]c3-c3ccncc3)ccc2c1 (stereo not drawn) [Tie2 kinase inhibitor] | -0.238 | -4.75 | -0.713 | -1.05 |
| Cc1cc(C)nc(NS(=O)(=O)c2ccc(NC(=S)NC(=O)COc3ccc(Br)cc3Cl)cc2)n1 [ZCL278] | -0.134 | -0.166 | -1.01 | -1.02 |
| C=CC(=O)Nc1cc(Nc2nccc(-c3cn(C)c4ccccc34)n2)c(OC)cc1N(C)CCN(C)C [AZD9291] | -0.293 | -0.27 | -0.497 | -1.19 |
| NCC(=O)Nc1ccc(-n2nc(C(F)(F)F)cc2-c2ccc3c(ccc4ccccc43)c2)cc1 [OSU-03012 (AR-12)] | -1.36 | 0.388 | -0.382 | -8.69 |
| CC(C)CC(=O)Nc1n[nH]c2c1CN(C(=O)C1CCN(C)CC1)C2(C)C [PHA-793887] | -0.158 | -0.312 | -0.826 | -0.634 |
| CNc1nc(-c2ccc3c(N)n[nH]c3c2)cc(N2C[C@@H](C(=O)NC3CCCCC3)CC[C@H]2C)n1 [GSK2334470] | -0.4 | -0.431 | -0.8 | -0.636 |
| Cc1cc(Nc2ncnc3ccc(-c4ccc(CNCCS(C)(=O)=O)o4)cc23)ccc1Oc1ccn2ncnc2c1 [HER2-Inhibitor-1] | 0.197 | 0.102 | -0.782 | -0.972 |
| COc1cc2ncnc(Nc3ccc(O)c(Br)c3)c2cc1OC [WHI-P154] | 1.76 | 2.03 | 0.428 | 0.694 |
| O=C(NCc1cccc(O)c1)Nc1nc(-c2ccncc2)cs1 [RKI-1447] | 0.716 | -0.42 | -0.456 | -0.48 |
| COc1cc(Nc2ncc3c(n2)-c2ccc(Cl)cc2C(c2c(F)cccc2OC)=NC3)ccc1C(=O)O [Alisertib (MLN8237)] | -0.494 | -0.528 | -1.37 | -1.1 |
| CC(C)(C)NS(=O)(=O)c1cncc(-c2cc(F)c3nc(N)nn3c2)c1 [CZC24832] | -0.444 | -0.339 | -0.757 | -1.04 |
| CN(C)c1ccc(-c2nc3ncc(Cl)c(N4CCN(CC(=O)Nc5nccs5)CC4)c3[nH]2)cc1 [CCT129202] | -0.353 | -0.39 | -1.56 | -0.83 |
| CC(C)(C)c1cc(NC(=O)Nc2ccc(-c3cn4c(n3)sc3cc(OCCN5CCOCC5)ccc34)cc2)no1 [Quizartinib (AC220)] | -3.69 | -1.21 | -11.5 | -4.77 |

| SMILES | ΔTm at 10 µM (ZmDRIK1-R187-P492) [°C] | ΔTm at 10 µM (ZmDRIK1-K217-S514) [°C] | ΔTm at 10 µM [1] [°C] | ΔTm at 10 µM (ZmDRIK1-K217-P492) [°C] |
| --- | --- | --- | --- | --- |
| Cc1cc(Nc2cc(N3CCN(C)CC3)nc(Sc3ccc(NC(=O)C4CC4)cc3)n2)n[nH]1 [VX-680 (Tozasertib)] | -0.37 | -0.694 | -0.713 | -1.16 |
| COc1ncc(-c2ccc3nccc(-c4ccnnc4)c3c2)cc1NS(=O)(=O)c1ccc(F)cc1F [GSK2126458 (GSK458)] | -0.322 | -0.505 | -0.808 | -1.03 |
| COC(=O)Nc1ccc(-c2nc(N3CCOCC3)c3cnn(C4CCN(C(=O)OC)CC4)c3n2)cc1 [WYE-354] | 0.97 | -0.255 | -0.687 | -1.11 |
| O=C(c1ccc(/C=C/c2n[nH]c3ccccc23)cc1)N1CCNCC1 [KW-2449] | -0.0311 | -0.13 | -0.807 | -0.672 |
| CO[C@H]1C[C@@H]2CC[C@@H](C)[C@@](O)(O2)C(=O)C(=O)N2CCCC[C@H]2C(=O)O[C@H]([C@H](C)C[C@@H]2CC[C@H](n3cnnn3)[C@H](OC)C2)CC(=O)[C@H](C)/C=C(\C)[C@@H](O)[C@@H](OC)C(=O)[C@H](C)C[C@H](C)/C=C/C=C/C=C/1C [Zotarolimus(ABT-578)] | -0.286 | -0.269 | -0.396 | -0.534 |
| Nc1ncnc2c1c(-c1cccc(OCc3ccccc3)c1)cn2[C@H]1C[C@@H](CN2CCC2)C1 [NVP-AEW541] | -0.332 | -0.366 | -0.841 | -1.08 |
| O=c1[nH]c2ccc(Cl)cc2c(N[C@@H]2CN3CCC2CC3)c1-c1nc2ccccc2[nH]1 [CHIR-124] | -0.356 | -0.3 | -0.602 | -0.621 |
| O=C(NCc1ccccc1)c1csc(Nc2ccncn2)n1 [Thiazovivin] | -0.171 | -0.368 | -0.845 | -0.879 |
| Fc1cc(-c2cccc3ncc(-c4cnn(C5CCNCC5)c4)nc23)cc(F)c1CN1CCOCC1 [NVP-BSK805 2HCl] | -0.0846 | -0.602 | -0.913 | -0.999 |
| CO[C@H]1C[C@@H]2CC[C@@H](C)[C@@](O)(O2)C(=O)C(=O)N2CCCC[C@H]2C(=O)O[C@H]([C@H](C)C[C@@H]2CC[C@@H](O)[C@H](OC)C2)CC(=O)[C@H](C)/C=C(\C)[C@@H](O)[C@@H](OC)C(=O)[C@H](C)C[C@H](C)/C=C/C=C/C=C/1C [Rapamycin (Sirolimus)] | -1.03 | -0.483 | -1.41 | -1.45 |
| Nc1nccc(Oc2ccc(NC(=O)c3c[nH]cc(-c4ccc(F)cc4)c3=O)cc2F)c1Cl [BMS-794833] | 0.213 | -19 | -1.96 | -0.717 |
| COc1cc2c(Nc3ccc(NC(=O)c4ccccc4)cc3)ncnc2cc1OCCCN1CCOCC1 [ZM 447439] | 0.124 | 0.111 | -0.965 | -0.314 |
| Cc1cc(C(C)Nc2ccccc2)c2nc(N3CCOCC3)cc(=O)n2c1 (stereo not drawn) [TGX-221] | -0.136 | -0.0845 | -0.944 | -0.973 |
| CNC(=O)c1ccccc1Nc1nc(Nc2ccc(N3CCOCC3)cc2OC)ncc1Cl [TAE226 (NVP-TAE226)] | -0.231 | -0.321 | -0.781 | -0.725 |
| O=C(/C=C/c1ccc(O)c(O)c1)c1ccc(O)cc1O [Butein] | 0.882 | 0.982 | 0.686 | 1.78 |
| CC(C)(O)CC(=O)NCCn1ccc2ncnc(Nc3ccc(Oc4cccc(C(F)(F)F)c4)c(Cl)c3)c21 [TAK-285] | 0.579 | 1.35 | -25.6 | -0.527 |
| O=C1c2ccc(Nc3ccc(F)cc3F)cc2CCc2ccc(OC[C@H](O)CO)cc21 [Skepinone-L] | -0.481 | -0.642 | -0.803 | -0.992 |
| Clc1ccc(C2(c3ccc(-c4cn[nH]c4)cc3)CCNCC2)cc1 [AT7867] | -0.25 | 0.339 | -0.971 | -0.759 |
